The text below walks through data of US12534450B2, “Methods and compositions for targeting PD-L1” (Aligos Therapeutics, Inc., priority 2021, dated 2026).

Each structure is given as a SMILES string.

For one test, the target named is PD-1/PD-L1 PPI (Homo sapiens, UniProt Q9NZQ7). Briefly: PDL1/PD1 Binding Assay. The settings on record: PDL1-6×His 0.3 nM, PD1-Fc-Avi-Biotin 2.5 nM, Acceptor/Donor beads, Envision reader. Here is the method: Compounds to be tested were serially diluted in DMSO, and further diluted in assay buffer (25 mM Hepes pH 7.4, 150 mM NaCl, 0.005% Tween 20, BSA 0.01%). Diluted compounds were added to the wells with final concentration of DMSO at 1%. PDL1-6×His protein was added to the wells, mixed well with compound. The plates were incubated for 30 min at room temperature. PD1-Fc-Avi-Biotin protein was added to the wells. Final concentration of PDL1 and PD1 protein is 0.3 nM and 2.5 nM, respectively. After a binding time of 30 min at room temperature, Anti-6×His Acceptor beads (final concentration 20 ug/ml) were added to the wells, and the incubation continued for 1 h. Streptavidin Donor beads (final concentration 20 ug/mL) were added at reduced light. The plates were sealed with foil and incubated in the dark for additional 1 h or overnight before reading on an Envision reader. The IC50 values were determined by fitting the curves using a four-parameter equation in Graphpad Prism 8.
Chain of PD-1/PD-L1 PPI (Q9NZQ7 19-238 limits assumed): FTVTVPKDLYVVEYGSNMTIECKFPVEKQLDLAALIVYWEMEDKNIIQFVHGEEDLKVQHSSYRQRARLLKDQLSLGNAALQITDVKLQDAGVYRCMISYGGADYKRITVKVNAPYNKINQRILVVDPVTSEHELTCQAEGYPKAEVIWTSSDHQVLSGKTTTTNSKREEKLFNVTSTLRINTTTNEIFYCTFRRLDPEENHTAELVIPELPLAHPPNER

Another test deals with PD-1/PD-L1 interaction. Briefly: PD-1/PD-L1 NFAT Reporter Assay (co-culture of Jurkat T cells overexpressing PD-1 and PD-L1 expressing CHO cells). It counts as cell-based. As to conditions: Homo sapiens, Jurkat, 6 h, co-culture 6 hrs at 37° C., NFAT-mediated luciferase activity. Here is the method: Blocking the PD-1/PD-L1 interaction will release the inhibitory signal and results in TCR signaling and NFAT-mediated luciferase activity.
CHO cells expressing surface-bound anti-CD3 antibodies and PD-L1 were first seeded overnight and treated with the compounds. Jurkat cells overexpressing PD-1 and a luciferase construct under NFAT promoter were then immediately seeded on the monolayer of CHO cells. The co-culture was then incubated for 6 hrs at 37° C. Luciferase activity was assessed by adding the ONE-Glo reagent and measuring luminescence with a plate reader. EC50 values were determined from the fit of the dose-response curves.

The IC50 is the point on the concentration scale where inhibition reaches its midpoint. In general, EC50 refers to the midpoint of the concentration-response curve. Low values mean a more potent agent, high ones a less potent agent. For `COc1nc(-c2cccc(-c3cccc(NC(=O)c4cn(C)c(=O)n(C)c4=O)c3Cl)c2Cl)cc2c1[C@H](N1CC3(CCNC3=O)C1)CC2` (single isomer, unassigned) [Compound A-22], the IC50 on PD-1/PD-L1 PPI was ≤ 0.01 µM. Moreover, the EC50 in the test with PD-1/PD-L1 interaction was ≤ 0.01 µM.

As for `COc1nc(-c2cccc(-c3cccc(NC(=O)c4cn(C)c(=O)n(C)c4=O)c3Cl)c2Cl)cc2c1[C@H](N1CC3(CN(C(C)=O)C3)C1)CC2` (single isomer, unassigned) [Compound A-23], the IC50 on PD-1/PD-L1 PPI is ≤ 0.01 µM. In addition, in the test with PD-1/PD-L1 interaction, the EC50 is ≤ 0.01 µM.

As to `COc1nc(-c2cccc(-c3cccc(NC(=O)c4cn(C)c(=O)n(C)c4=O)c3Cl)c2Cl)cc2c1[C@H](N1CC(OC)C1)CC2` (single isomer, unassigned) [Compound A-25], on PD-1/PD-L1 PPI, the IC50 was ≤ 0.01 µM. The EC50 with PD-1/PD-L1 interaction was ≤ 0.01 µM.

`COc1nc(-c2cccc(-c3cccc(NC(=O)c4cn(C)c(=O)n(C)c4=O)c3Cl)c2Cl)cc2c1[C@H](N1CC(O)C1)CC2` (single isomer, unassigned) [Compound A-27]: the IC50 on PD-1/PD-L1 PPI was ≤ 0.01 µM. The EC50 in the test with PD-1/PD-L1 interaction is ≤ 0.01 µM.

`COc1nc(-c2cccc(-c3cccc(NC(=O)c4cn(C)c(=O)n(C)c4=O)c3C)c2Cl)cc2c1[C@H](N1CC(O)C1)CC2` (single isomer, unassigned) [Compound A-28]: the half-inhibitory concentration (IC50) on PD-1/PD-L1 PPI was ≤ 0.01 µM. Moreover, the EC50 in the test on PD-1/PD-L1 interaction was ≤ 0.01 µM.

As to `COc1nc(-c2cccc(-c3cccc(NC(=O)c4cn(C)c(=O)n(C)c4=O)c3Cl)c2Cl)cc2c1[C@@H](N[C@@H]1CCOC[C@@H]1O)CC2` (single isomer, unassigned) [Compound A-29], the IC50 at PD-1/PD-L1 PPI is ≤ 0.01 µM. For the same molecule, the EC50 in the test on PD-1/PD-L1 interaction was ≤ 0.01 µM.

For the molecule `COc1nc(-c2cccc(-c3cccc(NC(=O)c4cn(C)c(=O)n(C)c4=O)c3Cl)c2Cl)cc2c1[C@H](N[C@@H]1CCOC[C@@H]1O)CC2` (single isomer, unassigned) [Compound A-30], the concentration for half-maximal inhibition (IC50) at PD-1/PD-L1 PPI is ≤ 0.01 µM. The EC50 in the test with PD-1/PD-L1 interaction lay within 0.1 to 1 µM.

Consider `COc1nc(-c2cccc(-c3cccc(NC(=O)c4cn(C)c(=O)n(C)c4=O)c3Cl)c2C)cc2c1[C@H](N[C@@H]1CCOC[C@@H]1O)CC2` (single isomer, unassigned) [Compound A-31], for which the IC50 on PD-1/PD-L1 PPI is ≤ 0.01 µM. This molecule also showed a concentration for a half-maximal effect (EC50) in the test with PD-1/PD-L1 interaction of 1 to 10 µM.

`COc1nc(-c2cccc(-c3cccc(NC(=O)c4cn(C)c(=O)n(C)c4=O)c3C)c2Cl)cc2c1[C@H](N[C@@H]1CCOC[C@@H]1O)CC2` (single isomer, unassigned) [Compound A-33]: the IC50 on PD-1/PD-L1 PPI was ≤ 0.01 µM. The EC50 in the test on PD-1/PD-L1 interaction is ≤ 0.01 µM.

As to `COc1nc(-c2cccc(-c3cccc(NC(=O)c4cn(C)c(=O)n(C)c4=O)c3Cl)c2C)cc2c1[C@@H](N[C@@H]1CCOC[C@@H]1O)CC2` (single isomer, unassigned) [Compound A-39], the IC50 at PD-1/PD-L1 PPI was ≤ 0.01 µM. In addition, the concentration giving a half-maximal response (EC50) with PD-1/PD-L1 interaction is ≤ 0.01 µM.

With `COc1nc(-c2cccc(-c3cccc(NC(=O)c4cn(C)c(=O)n(C)c4=O)c3C)c2Cl)cc2c1[C@@H](N[C@@H]1CCOC[C@@H]1O)CC2` (single isomer, unassigned) [Compound A-40], the IC50 at PD-1/PD-L1 PPI is ≤ 0.01 µM. In the test on PD-1/PD-L1 interaction, the EC50 was ≤ 0.01 µM.

Regarding `COc1nc(-c2cccc(-c3cccc(NC(=O)c4cn(C)c(=O)n(C)c4=O)c3C)c2C)cc2c1[C@@H](N[C@@H]1CCOC[C@@H]1O)CC2` (single isomer, unassigned) [Compound A-41], the IC50 on PD-1/PD-L1 PPI was ≤ 0.01 µM. The EC50 in the test with PD-1/PD-L1 interaction was ≤ 0.01 µM.

Turning to `COc1nc(-c2cccc(-c3cccc(NC(=O)c4cn(C)c(=O)n(C)c4=O)c3C)c2F)cc2c1[C@@H](N[C@@H]1CCOC[C@@H]1O)CC2` (single isomer, unassigned) [Compound A-42], at PD-1/PD-L1 PPI, the IC50 was ≤ 0.01 µM. The EC50 in the test with PD-1/PD-L1 interaction is 0.01 to 0.1 µM.

Regarding `COc1nc(-c2cccc(-c3cccc(NC(=O)c4cn(C)c(=O)n(C)c4=O)c3C)c2C)cc2c1[C@@H](NC[C@@H]1CCC(=O)N1)CO2` (single isomer, unassigned) [Compound A-49], at PD-1/PD-L1 PPI, the IC50 is ≤ 0.01 µM. The same molecule returned an EC50 in the test with PD-1/PD-L1 interaction of 0.01 to 0.1 µM.

Regarding `COc1nc(-c2cccc(-c3cccc(NC(=O)c4cn(C)c(=O)n(C)c4=O)c3C)c2Cl)cc2c1[C@H](N1CC3(CN(C(C)=O)C3)C1)CC2` (single isomer, unassigned) [Compound A-72], the half-inhibitory concentration (IC50) on PD-1/PD-L1 PPI is ≤ 0.01 µM. This molecule yielded an EC50 in the test on PD-1/PD-L1 interaction of 0.01 to 0.1 µM.

For `COc1nc(-c2cccc(-c3cc(F)cc(NC(=O)c4nn(C)c(=O)n(C)c4=O)c3C)c2C)cc2c1[C@@H](N[C@@H]1CCOC[C@@H]1O)CC2` (single isomer, unassigned) [Compound A-74], the IC50 at PD-1/PD-L1 PPI is ≤ 0.01 µM. The same molecule showed an EC50 in the test with PD-1/PD-L1 interaction of 0.01 to 0.1 µM.

In the case of `COc1nc(-c2cccc(-c3cccc(NC(=O)c4nn(C)c(=O)n(C)c4=O)c3C)c2C)cc2c1[C@@H](N[C@@H]1CCOC[C@@H]1O)CC2` (single isomer, unassigned) [Compound A-75], at PD-1/PD-L1 PPI, the half-inhibitory concentration (IC50) is ≤ 0.01 µM. Moreover, the concentration for a half-maximal effect (EC50) in the test with PD-1/PD-L1 interaction is 0.01 to 0.1 µM.

On PD-1/PD-L1 PPI, `COc1nc(-c2cccc(-c3cccc(NC(=O)c4cn(C)c(=O)n(C)c4=O)c3C)c2C)cc2c1[C@@H](N1CC(O)C1)CC2` (single isomer, unassigned) [Compound A-79] displayed an IC50 of 0.01 to 0.1 µM. In the test with PD-1/PD-L1 interaction, the EC50 was > 5 µM.

With `COc1nc(-c2cccc(-c3cccc(NC(=O)c4cn(C)c(=O)n(C)c4=O)c3C)c2C)cc2c1[C@H](N1CC(O)C1)CC2` (single isomer, unassigned) [Compound A-80], the IC50 at PD-1/PD-L1 PPI was ≤ 0.01 µM. Moreover, the EC50 in the test on PD-1/PD-L1 interaction lay in the range of 0.01 to 0.1 µM.

As to `COc1nc(-c2cccc(-c3cccc(NC(=O)c4cn(C)c(=O)n(C)c4=O)c3C)c2C)cc2c1[C@@H](N1CC(OC)C1)CC2` (single isomer, unassigned) [Compound A-83], the IC50 on PD-1/PD-L1 PPI is ≤ 0.01 µM. Further, the EC50 with PD-1/PD-L1 interaction lay in the range of 0.01 to 0.1 µM.

The molecule `COc1nc(-c2cccc(-c3cccc(NC(=O)c4cn(C)c(=O)n(C)c4=O)c3C)c2C)cc2c1[C@H](N1CC(OC)C1)CC2` (single isomer, unassigned) [Compound A-84] returned an IC50 on PD-1/PD-L1 PPI of 0.01 to 0.1 µM. The concentration for a half-maximal effect (EC50) with PD-1/PD-L1 interaction was > 5 µM.

Consider `CCOC(=O)C1CN([C@H]2CCc3cc(-c4cccc(-c5cccc(NC(=O)c6cn(C)c(=O)n(C)c6=O)c5Cl)c4Cl)nc(OC)c32)C1` (single isomer, unassigned) [Compound A-85], for which, at PD-1/PD-L1 PPI, the IC50 is ≤ 0.01 µM. This molecule yielded an EC50 in the test with PD-1/PD-L1 interaction of 0.01 to 0.1 µM.

With `CCOC(=O)C1CN([C@@H]2CCc3cc(-c4cccc(-c5cccc(NC(=O)c6cn(C)c(=O)n(C)c6=O)c5Cl)c4Cl)nc(OC)c32)C1` (single isomer, unassigned) [Compound A-86], the IC50 on PD-1/PD-L1 PPI is 0.1 to 1 µM. For the same molecule, in the test with PD-1/PD-L1 interaction, the EC50 is > 5 µM.

With `CCOC(=O)C1CN([C@H]2CCc3cc(-c4cccc(-c5cccc(NC(=O)c6ccnn(C)c6=O)c5Cl)c4Cl)nc(OC)c32)C1` (single isomer, unassigned) [Compound A-87], the IC50 on PD-1/PD-L1 PPI is ≤ 0.01 µM. The EC50 in the test on PD-1/PD-L1 interaction was 0.01 to 0.1 µM.

For the molecule `CCOC(=O)C1CN([C@H]2CCc3cc(-c4cccc(-c5cccc(NC(=O)c6ccnn(C)c6=O)c5C)c4Cl)nc(OC)c32)C1` (single isomer, unassigned) [Compound A-88], the half-maximal inhibitory concentration (IC50) at PD-1/PD-L1 PPI is ≤ 0.01 µM. The EC50 in the test on PD-1/PD-L1 interaction lay within 0.01 to 0.1 µM.

On PD-1/PD-L1 PPI, `COc1nc(-c2cccc(-c3cccc(NC(=O)c4cn(C)c(=O)n(C)c4=O)c3C)c2C)cc2c1[C@@H](N[C@@H]1CCOC[C@H]1O)CC2` (single isomer, unassigned) [Compound A-89] gave a 50% inhibitory concentration (IC50) of 0.01 to 0.1 µM. For the same molecule, the EC50 in the test on PD-1/PD-L1 interaction was 1 to 10 µM.
